From patent US20150337013A1, “NOVEL ANTIBACTERIAL AGENTS FOR THE TREATMENT OF GRAM POSITIVE INFECTIONS” (priority 2008, published 2015)
Like-named read-outs stand apart in the source and are kept apart here.

Assays:
[1] = system: Clostridium difficile
[2] = system: Staphylococcus aureus SAU.399 (ATCC 43300), Methicillin and Oxacillin Resistant; type: cell-based
Method in brief: (§1)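 MIC in μg/mL, taken as the lowest compound concentration producing no visible turbidity after 18-20 hours at 37° C with shaking at 200 rpm. Organisms were grown in calcium-supplemented (50 mg/L) Mueller Hinton broth at 5×10^5 bacteria per well.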

[3] = system: Staphylococcus aureus SAU.42 (ATCC 29213); type: cell-based
Method in brief: as §1

[4] = system: Enterococcus faecalis EFS.201 (ATCC 49452); type: cell-based
Method in brief: as §1

[5] = system: Enterococcus faecalis EFS.312, Daptomycin resistant mutant (EFA); type: cell-based; conditions: MHBc with 50 mg/L calcium, 18-20 hours at 37° C.
Method in brief: as §1

[6] = system: Staphylococcus aureus SAU.278, Daptomycin resistant mutant (D10); type: cell-based; conditions: MHBc with 50 mg/L calcium, 18-20 hours at 37° C.
Method in brief: as §1

[7] = system: Enterococcus faecium EFM.384, Daptomycin resistant mutant (14-A); type: cell-based; conditions: MHBc with 50 mg/L calcium, 18-20 hours at 37° C.
Method in brief: as §1

[8] = system: Enterococcus faecium EFM.14 (ATCC 6569); type: cell-based
Method in brief: as §1

[9] = MHBc with 50 mg/L calcium, 18-20 hours at 37° C.

CCCCCCCCCC(C)NC(=O)N[C@@H](Cc1c[nH]c2ccccc12)C(=O)N[C@H](CC(N)=O)C(=O)N[C@@H](CC(=O)O)C(=O)N[C@@H]1C(=O)NCC(=O)N[C@@H](CCCN)C(=O)N[C@@H](CC(=O)O)C(=O)N[C@H](C)C(=O)N[C@@H](CC(=O)O)C(=O)NCC(=O)N[C@H](CO)C(=O)N[C@@H]([C@H](C)CC(=O)O)C(=O)N[C@@H](CC(=O)c2ccccc2N)C(=O)O[C@@H]1C (single isomer, unassigned) [14 isomer I]
C. diff MIC90 [1]: 1.0 µg/mL
Sa399 MIC ([2]; ATCC 43300): 0.5 µg/mL
Sa42 MIC ([3]; ATCC 29213): 0.25 µg/mL
Efs201 MIC ([4]; ATCC 49452): 1 µg/mL
Efs312 MIC [5]: 32 µg/mL
Sa278 MIC [6]: 1 µg/mL
Efm384 MIC [7]: 8 µg/mL
Efm14 MIC ([8]; ATCC 6569): 0.5 µg/mL

CCCCCCCCOc1ccc(C(=O)N[C@@H](Cc2c[nH]c3ccccc23)C(=O)N[C@H](CC(N)=O)C(=O)N[C@@H](CC(=O)O)C(=O)N[C@@H]2C(=O)NCC(=O)N[C@@H](CCCN)C(=O)N[C@@H](CC(=O)O)C(=O)N[C@H](C)C(=O)N[C@@H](CC(=O)O)C(=O)NCC(=O)N[C@H](CO)C(=O)N[C@@H]([C@H](C)CC(=O)O)C(=O)N[C@@H](CC(=O)c3ccccc3N)C(=O)O[C@@H]2C)cc1 [Compound 36]
C. diff MIC90 [1]: 0.5 µg/mL
Sa399 MIC [2, 9]: 0.25 µg/mL
Sa42 MIC [3, 9]: 0.25 µg/mL
Efs201 MIC [4, 9]: 0.5 µg/mL
Efs312 MIC [5]: 4 µg/mL
Sa278 MIC [6]: 1.00 µg/mL
Efm384 MIC [7]: 4 µg/mL
Efm14 MIC [8, 9]: 0.5 µg/mL

C[C@H](CC(=O)O)[C@@H]1NC(=O)[C@@H](CO)NC(=O)CNC(=O)[C@H](CC(=O)O)NC(=O)[C@@H](C)NC(=O)[C@H](CC(=O)O)NC(=O)[C@H](CCCN)NC(=O)CNC(=O)[C@@H](NC(=O)[C@H](CC(=O)O)NC(=O)[C@@H](CC(N)=O)NC(=O)[C@H](Cc2c[nH]c3ccccc23)NC(=O)c2ccc(-c3ccc(-c4ccccc4)cc3)cc2)[C@@H](C)OC(=O)[C@H](CC(=O)c2ccccc2N)NC1=O [Compound 69]
C. diff MIC90 [1]: 2 µg/mL
Sa399 MIC [2, 9]: 0.125 µg/mL
Sa42 MIC [3, 9]: 0.125 µg/mL
Efs201 MIC [4, 9]: 0.5 µg/mL
Efs312 MIC [5]: 32 µg/mL
Sa278 MIC [6]: 0.125 µg/mL
Efm384 MIC [7]: 4 µg/mL
Efm14 MIC [8, 9]: 0.5 µg/mL

CCCCCCOc1ccc(C(=O)N[C@@H](Cc2c[nH]c3ccccc23)C(=O)N[C@H](CC(N)=O)C(=O)N[C@@H](CC(=O)O)C(=O)N[C@@H]2C(=O)NCC(=O)N[C@@H](CCCN)C(=O)N[C@@H](CC(=O)O)C(=O)N[C@H](C)C(=O)N[C@@H](CC(=O)O)C(=O)NCC(=O)N[C@H](CO)C(=O)N[C@@H]([C@H](C)CC(=O)O)C(=O)N[C@@H](CC(=O)c3ccccc3N)C(=O)O[C@@H]2C)cc1 [Compound 35]
C. diff MIC90 [1]: 2 µg/mL
Sa399 MIC [2, 9]: 0.5 µg/mL
Sa42 MIC [3, 9]: 0.5 µg/mL
Efs201 MIC [4, 9]: 1.0 µg/mL
Efs312 MIC [5]: >32 µg/mL
Sa278 MIC [6]: 4.00 µg/mL
Efm384 MIC [7]: 32 µg/mL
Efm14 MIC [8, 9]: 2 µg/mL

CCCCCCCCCC(=O)N[C@@H](Cc1c[nH]c2ccccc12)C(=O)N[C@H](CC(N)=O)C(=O)N[C@@H](CC(=O)O)C(=O)N[C@@H]1C(=O)NCC(=O)N[C@@H](CCCN)C(=O)N[C@@H](CC(=O)O)C(=O)N[C@H](C)C(=O)N[C@@H](CC(=O)O)C(=O)NCC(=O)N[C@H](CO)C(=O)N[C@@H]([C@H](C)CC(=O)O)C(=O)N[C@@H](CC(=O)c2ccccc2N)C(=O)O[C@@H]1C [Daptomycin, reference compound]
C. diff MIC90 [1]: 2 µg/mL
Sa399 MIC ([2]; ATCC 43300): 0.5 µg/mL
Sa42 MIC ([3]; ATCC 29213): 0.5 µg/mL
Efs201 MIC ([4]; ATCC 49452): 2 µg/mL
Efs312 MIC [5]: >32 µg/mL
Sa278 MIC [6]: 8 µg/mL
Efm384 MIC [7]: >32 µg/mL
Efm14 MIC ([8]; ATCC 6569): 4 µg/mL

C[C@H](CC(=O)O)[C@@H]1NC(=O)[C@@H](CO)NC(=O)CNC(=O)[C@H](CC(=O)O)NC(=O)[C@@H](C)NC(=O)[C@H](CC(=O)O)NC(=O)[C@H](CCCN)NC(=O)CNC(=O)[C@@H](NC(=O)[C@H](CC(=O)O)NC(=O)[C@@H](CC(N)=O)NC(=O)[C@H](Cc2c[nH]c3ccccc23)NC(=O)c2cc(-c3ccc(Cl)cc3)cs2)[C@@H](C)OC(=O)[C@H](CC(=O)c2ccccc2N)NC1=O [Compound 70]
C. diff MIC90 [1]: 16 µg/mL
Sa399 MIC ([2]; ATCC 43300): 8 µg/mL
Sa42 MIC ([3]; ATCC 29213): 8 µg/mL
Efs201 MIC ([4]; ATCC 49452): >32 µg/mL
Efs312 MIC [5]: >32 µg/mL
Sa278 MIC [6]: >32 µg/mL
Efm384 MIC [7]: >32 µg/mL
Efm14 MIC ([8]; ATCC 6569): >32 µg/mL

CCCCCCC12CCC(C(=O)N[C@@H](Cc3c[nH]c4ccccc34)C(=O)N[C@H](CC(N)=O)C(=O)N[C@@H](CC(=O)O)C(=O)N[C@@H]3C(=O)NCC(=O)N[C@@H](CCCN)C(=O)N[C@@H](CC(=O)O)C(=O)N[C@H](C)C(=O)N[C@@H](CC(=O)O)C(=O)NCC(=O)N[C@H](CO)C(=O)N[C@@H]([C@H](C)CC(=O)O)C(=O)N[C@@H](CC(=O)c4ccccc4N)C(=O)O[C@@H]3C)(CC1)CC2 [Compound 23]
C. diff MIC90 [1]: 0.5 µg/mL
Sa399 MIC ([2]; ATCC 43300): 0.5 µg/mL
Sa42 MIC ([3]; ATCC 29213): 0.50 µg/mL
Efs201 MIC ([4]; ATCC 49452): 0.5 µg/mL
Efs312 MIC [5]: 4 µg/mL
Sa278 MIC [6]: 1 µg/mL
Efm384 MIC [7]: 4 µg/mL
Efm14 MIC ([8]; ATCC 6569): 0.5 µg/mL

CCCCCOc1ccc(/C=C/C(=O)N[C@@H](Cc2c[nH]c3ccccc23)C(=O)N[C@H](CC(N)=O)C(=O)N[C@@H](CC(=O)O)C(=O)N[C@@H]2C(=O)NCC(=O)N[C@@H](CCCN)C(=O)N[C@@H](CC(=O)O)C(=O)N[C@H](C)C(=O)N[C@@H](CC(=O)O)C(=O)NCC(=O)N[C@H](CO)C(=O)N[C@@H]([C@H](C)CC(=O)O)C(=O)N[C@@H](CC(=O)c3ccccc3N)C(=O)O[C@@H]2C)cc1 [Compound 41]
C. diff MIC90 [1]: 4 µg/mL
Sa399 MIC [2, 9]: 2 µg/mL
Sa42 MIC [3, 9]: 4 µg/mL
Efs201 MIC [4, 9]: 4 µg/mL
Efs312 MIC [5]: >32 µg/mL
Sa278 MIC [6]: 2 µg/mL
Efm384 MIC [7]: >32 µg/mL
Efm14 MIC [8, 9]: 8 µg/mL

CCCCCCCCCCCCOc1ccc(C(=O)N[C@@H](Cc2c[nH]c3ccccc23)C(=O)N[C@H](CC(N)=O)C(=O)N[C@@H](CC(=O)O)C(=O)N[C@@H]2C(=O)NCC(=O)N[C@@H](CCCN)C(=O)N[C@@H](CC(=O)O)C(=O)N[C@H](C)C(=O)N[C@@H](CC(=O)O)C(=O)NCC(=O)N[C@H](CO)C(=O)N[C@@H]([C@H](C)CC(=O)O)C(=O)N[C@@H](CC(=O)c3ccccc3N)C(=O)O[C@@H]2C)cc1 [Compound 39]
C. diff MIC90 [1]: 16 µg/mL
Sa399 MIC [2, 9]: 0.500 µg/mL
Sa42 MIC [3, 9]: 1.00 µg/mL
Efs201 MIC [4, 9]: 0.5 µg/mL
Efs312 MIC [5]: 2 µg/mL
Sa278 MIC [6]: 2.00 µg/mL
Efm384 MIC [7]: 2 µg/mL
Efm14 MIC [8, 9]: 2.0 µg/mL

CCCCCCCOc1ccc(-c2ccc(C(=O)N[C@@H](Cc3c[nH]c4ccccc34)C(=O)N[C@H](CC(N)=O)C(=O)N[C@@H](CC(=O)O)C(=O)N[C@@H]3C(=O)NCC(=O)N[C@@H](CCCN)C(=O)N[C@@H](CC(=O)O)C(=O)N[C@H](C)C(=O)N[C@@H](CC(=O)O)C(=O)NCC(=O)N[C@H](CO)C(=O)N[C@@H]([C@H](C)CC(=O)O)C(=O)N[C@@H](CC(=O)c4ccccc4N)C(=O)O[C@@H]3C)cc2)cc1 [Compound 63]
C. diff MIC90 [1]: 2 µg/mL
Sa399 MIC [2, 9]: 0.25 µg/mL
Sa42 MIC [3, 9]: 0.25 µg/mL
Efs201 MIC [4, 9]: 0.5 µg/mL
Efs312 MIC [5]: 4 µg/mL
Sa278 MIC [6]: 0.25 µg/mL
Efm384 MIC [7]: 1 µg/mL
Efm14 MIC [8, 9]: 1 µg/mL
